Among the data in PubChem BioAssay (NCI) are GI50 and TGI values, retold here.

Molecules are shown by their SMILES. “And” between values parts separate entries of the source, which are not always exact repeats. Equal entries are not always repeated.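 Test compounds were applied to cells in 96-well plates for 48 hours at 5 doses. GI50 marks 50% less growth. TGI is the concentration that stops growth completely.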 Some results are limits rather than exact numbers.

The first assay relates to SN12C renal. Description: growth of human tumour cells (NCI), 48 h.
For `CN[C@@H](C)C(=O)N[C@H](C(=O)N1CCC[C@H]1C(=O)Nc1sc(-c2ncco2)nc1-c1ccccc1)C1CCCCC1`, the GI50 is 38.9 µM and the TGI is above 71.9 µM.
The corresponding values for `CC1=C2[C@@H](CC1)[C@]1(C)O[C@@](c3ccccc3)(C[C@H]1OC(=O)CO)[C@H]2OC(=O)/C=C/c1ccccc1` are 1.14 µM and 30.2 µM.
The corresponding values for `CO/N=C(\COc1ccc2c(c1)[nH]c1ccccc12)c1ccc(F)cc1` are above 100 µM and above 100 µM.
Consider `C1CCC([PH+](C2CCCCC2)C2CCCCC2[PH+](C2CCCCC2)C2CCCCC2)CC1.[Au].[CH-]1CCCCC1CC1CCCC[N-]1` (stereo unspecified), for which the GI50 was 0.285 µM and the TGI is 2.93 µM.
As to `N#Cc1c(N2CCOCC2)nc(=S)[nH]c1-c1ccco1`, the GI50 is 4.46 µM and the TGI is above 100 µM.
Consider `NNC(=O)CS(=O)(=O)Nc1ncccn1`, for which the TGI was above 100 µM.
`O=C1NC(=O)C(N2C(=O)c3ccccc3C2=O)CC1O` (stereo unspecified): the GI50 is above 100 µM and the TGI was above 100 µM.
Consider `COc1cc2c(cc1C1COc3cc4occc4cc3C1=O)OCO2` (stereo unspecified), for which the TGI is above 100 µM.
Regarding `CCOC(=O)C1=C(C)N(c2ccc(Cl)cc2)[C@]2(C#N)C(O)=C(Cl)C(Cl)=C(O)[C@]12C#N`, the GI50 was above 100 µM and the TGI is above 100 µM.
On to `O=C1/C(=C/c2ccccc2[N+](=O)[O-])Cc2ccccc21`, for which the GI50 is 2.54 µM and the TGI stood at 9.17 µM.

The subject of the next assay is SK-MEL-2 melanoma. As to the kind of experiment: growth of human tumour cells (NCI), 48 h.
For `COc1cc(N2C(=O)[C@H](O)C2c2ccc(SC)cc2)cc(OC)c1OC` (stereo partly specified), the GI50 is below 0.01 µM and the TGI is above 100 µM.
The corresponding values for `O=C1OCC2=C1C(c1ccc(Cl)c(Cl)c1)c1cc3c(cc1N2CCO)OCCO3` (stereo unspecified) are 0.137 µM and 1.11 µM.
The compound `O=C1c2ccccc2-c2cc([N+](=O)[O-])c([N+](=O)[O-])cc21` gave a TGI of 3.66 µM.
For the compound `O=C(/C=C/c1cc2ccccc2[nH]c1=O)/C=C/c1cc2ccccc2[nH]c1=O`, the GI50 is above 24.7 µM and the TGI is above 30.6 µM.
The corresponding values for `Nc1nc(OCc2ccccc2)c2[nH]cnc2n1` are 25.1 µM and 177 µM.
Turning to `Fc1ccc(/C=N/n2c(-c3ccc(F)c(Cl)c3)nn(CNc3ccccc3C(F)(F)F)c2=S)cc1`, the GI50 is 46.6 µM and the TGI was above 100 µM.
In the case of `CN[C@@H](C)C(=O)N[C@H](C(=O)N1CCC[C@H]1C(=O)Nc1sc(-c2ncco2)nc1-c1ccccc1)C1CCCCC1`, the GI50 is 16.3 µM and the TGI is above 100 µM.
As for `CC1=C2[C@@H](CC1)[C@]1(C)O[C@@](c3ccccc3)(C[C@H]1OC(=O)CO)[C@H]2OC(=O)/C=C/c1ccccc1`, the GI50 was 16.8 µM and the TGI came to 38.4 µM.
With `C1CCC([PH+](C2CCCCC2)C2CCCCC2[PH+](C2CCCCC2)C2CCCCC2)CC1.[Au].[CH-]1CCCCC1CC1CCCC[N-]1` (stereo unspecified), the GI50 was 0.398 µM and the TGI worked out at 1.38 µM.
The corresponding values for `N#Cc1c(N2CCOCC2)nc(=S)[nH]c1-c1ccco1` are 2.38 µM and 33.6 µM.
`NNC(=O)CS(=O)(=O)Nc1ncccn1` returned a TGI above 100 µM.
As for `O=C1NC(=O)C(N2C(=O)c3ccccc3C2=O)CC1O` (stereo unspecified), the GI50 was above 100 µM and the TGI was above 100 µM.
As to `COc1cc2c(cc1C1COc3cc4occc4cc3C1=O)OCO2` (stereo unspecified), the TGI is above 100 µM.
Regarding `CCOC(=O)C1=C(C)N(c2ccc(Cl)cc2)[C@]2(C#N)C(O)=C(Cl)C(Cl)=C(O)[C@]12C#N`, the GI50 is above 100 µM and the TGI was above 100 µM.
Consider `O=C1/C(=C/c2ccccc2[N+](=O)[O-])Cc2ccccc21`, for which the GI50 is 5.39 µM and the TGI came to 19.7 µM.

Another assay deals with MOLT-4 leukemia. Description: growth of human tumour cells (NCI), 48 h.
Consider `COc1cc(N2C(=O)[C@H](O)C2c2ccc(SC)cc2)cc(OC)c1OC` (stereo partly specified), for which the GI50 is 0.0334 µM and the TGI stood at 53.4 µM.
The corresponding values for `O=C1OCC2=C1C(c1ccc(Cl)c(Cl)c1)c1cc3c(cc1N2CCO)OCCO3` (stereo unspecified) are 0.456 µM and above 42.3 µM.
The compound `O=C1c2ccccc2-c2cc([N+](=O)[O-])c([N+](=O)[O-])cc21` came in with a TGI of 4.36 µM.
For the compound `O=C(/C=C/c1cc2ccccc2[nH]c1=O)/C=C/c1cc2ccccc2[nH]c1=O`, the GI50 is 24 µM and the TGI is above 100 µM.
`Nc1nc(OCc2ccccc2)c2[nH]cnc2n1`: the GI50 was 88.4 µM and 33.5 µM; the TGI is 200 µM and 126 µM.
As to `Fc1ccc(/C=N/n2c(-c3ccc(F)c(Cl)c3)nn(CNc3ccccc3C(F)(F)F)c2=S)cc1`, the GI50 is 28.4 µM and the TGI was above 100 µM.
As to `CN[C@@H](C)C(=O)N[C@H](C(=O)N1CCC[C@H]1C(=O)Nc1sc(-c2ncco2)nc1-c1ccccc1)C1CCCCC1`, the GI50 was 29.2 µM and the TGI worked out at 88.1 µM.
The corresponding values for `CC1=C2[C@@H](CC1)[C@]1(C)O[C@@](c3ccccc3)(C[C@H]1OC(=O)CO)[C@H]2OC(=O)/C=C/c1ccccc1` are 13 µM and 45.1 µM.
In the case of `COc1cc2c3c(n(C)c(=O)c2cc1OC)-c1cc2c(cc1/C3=C\CCCCN1C(=O)c3ccccc3C1=O)OCO2`, the GI50 is 2.07 µM and the TGI was found to be 13.4 µM.
The corresponding values for `N#Cc1c(N2CCOCC2)nc(=S)[nH]c1-c1ccco1` are 4.64 µM and 51.1 µM.
For `O=C1NC(=O)C(N2C(=O)c3ccccc3C2=O)CC1O` (stereo unspecified), the GI50 was above 100 µM and the TGI is above 100 µM.
With `COc1cc2c(cc1C1COc3cc4occc4cc3C1=O)OCO2` (stereo unspecified), the TGI was above 100 µM.
With `CCOC(=O)C1=C(C)N(c2ccc(Cl)cc2)[C@]2(C#N)C(O)=C(Cl)C(Cl)=C(O)[C@]12C#N`, the GI50 was above 100 µM and the TGI is above 100 µM.
Turning to `O=C1/C(=C/c2ccccc2[N+](=O)[O-])Cc2ccccc21`, the GI50 is 2.92 µM and the TGI turned out to be 9.04 µM.
